One test concerns the target BRD4 (BDI_K57-E168) (Homo sapiens (Human), UniProt O60885). The test is described as follows: TR-FRET bromodomain binding assay, BRD4 BDI. The note with it: mean Ki, calculated from IC50, probe Kd and probe concentration. In outline: (§1)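 His-tagged BRD4 BDI (12 nM, with 100 nM Alexa647 BET-inhibitor probe) or BDII (4 nM, 30 nM probe), plus 1 nM Eu-anti-His antibody, in pH 6.0 phosphate buffer with 2% DMSO. Equilibrated 1 h at room temperature and read by TR-FRET. IC50 from a 4-parameter fit was converted to Ki using probe Kd and probe concentration.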

The target in the next test is BRD4 (BDII_E352-M457) (Homo sapiens (Human), UniProt O60885). The test is described as follows: TR-FRET bromodomain binding assay, BRD4 BDII. The note with it: mean Ki, calculated from IC50, probe Kd and probe concentration. In outline: as §1

Among the data in patent US10633379B2, “Bromodomain inhibitors” (AbbVie Inc., priority 2016, dated 2020) are Ki values, retold here.

Molecules are shown by their SMILES. pKi: −log10 of the molar value.

By pKi is commonly meant the Ki on a negative log10 scale, so that one unit is a factor of ten.

With `CCNC(=O)c1cc2c(-c3cc(C(C)(O)CO)ccc3Oc3c(C)cc(F)cc3Cl)cn(C)c(=O)c2[nH]1` (stereo not shown) [Example 119, 4-[2-(2-chloro-4-fluoro-6-methylphenoxy)-5-(1,2-dihydroxypropan-2-yl)phenyl]-N-ethyl-6-methyl-7-oxo-6,7-dihydro-1H-pyrrolo[2,3-c]pyridine-2-carboxamide], the figures for the pKi on BRD4 (BDI_K57-E168) and at BRD4 (BDII_E352-M457) were 6.46 and 8.66, respectively.
The matching figures for `Cc1cccc(C(F)(F)F)c1Oc1ccc(C(C)(O)CO)cc1-c1cn(C)c(=O)c2[nH]c(C(=O)NC(C)(C)C)cc12` (stereo not shown) [Example 127, N-tert-butyl-4-{5-(1,2-dihydroxypropan-2-yl)-2-[2-methyl-6-(trifluoromethyl)phenoxy]phenyl}-6-methyl-7-oxo-6,7-dihydro-1H-pyrrolo[2,3-c]pyridine-2-carboxamide]: 5.18 and 7.69.
The matching figures for `CCNC(=O)c1cc2c(-c3cc(C(C)(C)O)cnc3Oc3c(C)ccc(F)c3C)cn(C)c(=O)c2[nH]1` [Example 91, N-ethyl-4-[2-(3-fluoro-2,6-dimethylphenoxy)-5-(2-hydroxypropan-2-yl)pyridin-3-yl]-6-methyl-7-oxo-6,7-dihydro-1H-pyrrolo[2,3-c]pyridine-2-carboxamide]: 6.57 and 8.80.
Consider `Cn1cc(-c2cc(CO)ccc2Oc2ccccc2)c2cc[nH]c2c1=O` [Compound Z, 4-[5-(hydroxymethyl)-2-phenoxyphenyl]-6-methyl-1,6-dihydro-7H-pyrrolo[2,3-c]pyridin-7-one, reference compound], for which the values for the pKi at BRD4 (BDI_K57-E168) and at BRD4 (BDII_E352-M457) were 7.16 and 7.81, respectively.
The matching figures for `CCNC(=O)c1cc2c(-c3cc(C(C)(O)CF)ccc3Oc3c(C)cc(F)cc3C)cn(C)c(=O)c2[nH]1` (stereo not shown) [Example 83, N-ethyl-4-[2-(4-fluoro-2,6-dimethylphenoxy)-5-(1-fluoro-2-hydroxypropan-2-yl)phenyl]-6-methyl-7-oxo-6,7-dihydro-1H-pyrrolo[2,3-c]pyridine-2-carboxamide]: 6.46 and 8.96.
The matching figures for `CCNC(=O)c1cc2c(-c3cc(C(C)(O)Cc4ccc(F)cc4)cnc3Oc3c(C)cccc3C)cn(C)c(=O)c2[nH]1` (stereo not shown) [Example 22, 4-{2-(2,6-dimethylphenoxy)-5-[1-(4-fluorophenyl)-2-hydroxypropan-2-yl]pyridin-3-yl}-N-ethyl-6-methyl-7-oxo-6,7-dihydro-1H-pyrrolo[2,3-c]pyridine-2-carboxamide]: 5.60 and 7.98.
The matching figures for `Cc1cc(F)cc(C)c1Oc1ccc(C(C)(C)O)cc1-c1cn(C)c(=O)c2[nH]c(C(=O)NC(C)(C)C)cc12` [Example 36, N-tert-butyl-4-[2-(4-fluoro-2,6-dimethylphenoxy)-5-(2-hydroxypropan-2-yl)phenyl]-6-methyl-7-oxo-6,7-dihydro-1H-pyrrolo[2,3-c]pyridine-2-carboxamide]: 6.24 and 8.47.
`CCNC(=O)c1cc2c(-c3cc(C(O)(CC)Cc4ccc(F)cc4)cnc3Oc3c(C)cccc3C)cn(C)c(=O)c2[nH]1` (stereo not shown) [Example 15, 4-{2-(2,6-dimethylphenoxy)-5-[1-(4-fluorophenyl)-2-hydroxybutan-2-yl]pyridin-3-yl}-N-ethyl-6-methyl-7-oxo-6,7-dihydro-1H-pyrrolo[2,3-c]pyridine-2-carboxamide]: the values for the pKi on BRD4 (BDI_K57-E168) and on BRD4 (BDII_E352-M457) were 5.74 and 7.58, respectively.
The matching figures for `Cc1cccc(Cl)c1Oc1ncc(C(C)(C)O)cc1-c1cn(C)c(=O)c2[nH]c(C(=O)NC34CC(C3)C4)cc12` [Example 63, N-(bicyclo[1.1.1]pentan-1-yl)-4-[2-(2-chloro-6-methylphenoxy)-5-(2-hydroxypropan-2-yl)pyridin-3-yl]-6-methyl-7-oxo-6,7-dihydro-1H-pyrrolo[2,3-c]pyridine-2-carboxamide]: 6.39 and 8.82.
For `CCNC(=O)c1cc2c(-c3cc(C(C)(C)O)ccc3Oc3c(C)cc(C#N)cc3C)cn(C)c(=O)c2[nH]1` [Example 73, 4-[2-(4-cyano-2,6-dimethylphenoxy)-5-(2-hydroxypropan-2-yl)phenyl]-N-ethyl-6-methyl-7-oxo-6,7-dihydro-1H-pyrrolo[2,3-c]pyridine-2-carboxamide], in that order: 6.38 and 8.82.
For `Cc1cc(Cl)cc(C)c1Oc1ncc(C(C)(O)CF)cc1-c1cn(C)c(=O)c2[nH]c(C(=O)NC(C)(C)C)cc12` (stereo not shown) [Example 103, N-tert-butyl-4-[2-(4-chloro-2,6-dimethylphenoxy)-5-(1-fluoro-2-hydroxypropan-2-yl)pyridin-3-yl]-6-methyl-7-oxo-6,7-dihydro-1H-pyrrolo[2,3-c]pyridine-2-carboxamide], in that order: 6.35 and 8.48.
Consider `CCNC(=O)c1cc2c(-c3cc(C(C)(O)CF)cnc3Oc3c(C)cc(Cl)cc3C)cn(C)c(=O)c2[nH]1` (stereo not shown) [Example 102, 4-[2-(4-chloro-2,6-dimethylphenoxy)-5-(1-fluoro-2-hydroxypropan-2-yl)pyridin-3-yl]-N-ethyl-6-methyl-7-oxo-6,7-dihydro-1H-pyrrolo[2,3-c]pyridine-2-carboxamide], for which the pKi on BRD4 (BDI_K57-E168) was 6.51; at BRD4 (BDII_E352-M457), 8.60.
The matching figures for `CCNC(=O)c1cc2c(-c3cc(C(O)(CC)CC)cnc3Oc3c(C)cccc3C)cn(C)c(=O)c2[nH]1` [Example 2, 4-[2-(2,6-dimethylphenoxy)-5-(3-hydroxypentan-3-yl)pyridin-3-yl]-N-ethyl-6-methyl-7-oxo-6,7-dihydro-1H-pyrrolo[2,3-c]pyridine-2-carboxamide]: 6.66 and 8.52.
`CCNC(=O)c1cc2c(-c3cc(C(C)(O)CC)cnc3Oc3c(C)cccc3C)cn(C)c(=O)c2[nH]1` (stereo not shown) [Example 8, 4-[2-(2,6-dimethylphenoxy)-5-(2-hydroxybutan-2-yl)pyridin-3-yl]-N-ethyl-6-methyl-7-oxo-6,7-dihydro-1H-pyrrolo[2,3-c]pyridine-2-carboxamide]: the results for the pKi on BRD4 (BDI_K57-E168) and at BRD4 (BDII_E352-M457) were 6.44 and 8.64, respectively.
Turning to `Cc1cc(F)cc(C)c1Oc1ccc(C(C)(C)O)cc1-c1cn(C)c(=O)c2[nH]c(C(=O)NC3CC3)cc12` [Example 121, N-cyclopropyl-4-[2-(4-fluoro-2,6-dimethylphenoxy)-5-(2-hydroxypropan-2-yl)phenyl]-6-methyl-7-oxo-6,7-dihydro-1H-pyrrolo[2,3-c]pyridine-2-carboxamide], the pKi on BRD4 (BDI_K57-E168) was 6.45; at BRD4 (BDII_E352-M457) it was 9.22.
For `CCNC(=O)c1cc2c(-c3cc(C(C)(C)O)ccc3Oc3c(C)cc(S(C)(=O)=O)cc3C)cn(C)c(=O)c2[nH]1` [Example 85, N-ethyl-4-{5-(2-hydroxypropan-2-yl)-2-[4-(methanesulfonyl)-2,6-dimethylphenoxy]phenyl}-6-methyl-7-oxo-6,7-dihydro-1H-pyrrolo[2,3-c]pyridine-2-carboxamide], in that order: 6.36 and 8.74.
The matching figures for `CNC(=O)c1cc2c(-c3cc(C(C)(C)O)ccc3Oc3c(C)cc(F)cc3C)cn(C)c(=O)c2[nH]1` [Example 120, 4-[2-(4-fluoro-2,6-dimethylphenoxy)-5-(2-hydroxypropan-2-yl)phenyl]-N,6-dimethyl-7-oxo-6,7-dihydro-1H-pyrrolo[2,3-c]pyridine-2-carboxamide]: 6.79 and 9.10.
